Data published in patent US20210386367A1, “DEVICES AND SYSTEMS FOR GASTROINTESTINAL MICROBIOME DETECTION AND MANIPULATION” (Progenity, Inc., priority 2018, published 2021).
Where two headings read alike, the source gives them in different places.

How the values were obtained:
[1] = test system: Prevotella spp. clinical isolates; assay: MIC distribution against clinical isolates; type: cell-based
[2] = test system: S. pyogenes; assay: Spontaneous mutation frequency and mutation prevention concentration (MPC); type: cell-based; settings: S. pyogenes ATCC 49399; mutant prevention concentration
From the text: (§1) As used herein, “spontaneous mutation frequency” refers to the rate at which mutations arise in a bacterium that can lead to resistance to develop to an antimicrobial agent. “Mutation prevention concentration” or “MPC” refers to the lowest concentration of antimicrobial agent above which the selective proliferation of resistant mutants is expected to occur only rarely.

[3] = test system: S. pneumonia; assay: as above; type: cell-based; settings: S. pneumoniae ATCC 49619
From the text: as §1

[4] = test system: Escherichia coli; assay: as above; type: cell-based; settings: for MPC: mutant prevention concentration
From the text: as §1

[5] = test system: B. vulgatus; assay: as above; type: cell-based; settings: B. vulgatus ATCC 8482
From the text: as §1

[6] = test system: S. agalactiae; assay: as above; type: cell-based; settings: S. agalactiae ATCC 13813
From the text: as §1

[7] = test system: SIBO Bacteria; settings: cited from earlier work
[8] = test system: Bacteroides non fragilis; assay: Agar dilution MIC, 29 clinical isolates; type: cell-based, Bacteroides spp.
[9] = test system: Bacteroides spp. spontaneous mutants; assay: Broth microdilution MIC of spontaneous mutants; type: cell-based; settings: for MIC: read-out: MIC
Outline: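 Isolates from drug selection plates were subcultured on agar containing drug at the selection concentration and identified by MALDI, then MIC was determined by CLSI broth microdilution (M100-S28) with serial two-fold dilutions. Plates were pre-reduced 1 h in an anaerobic chamber; final inoculum ~1×10^6 CFU/mL.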

[10] = test system: E. coli MMX 1312; assay: Time-kill assay; type: cell-based, Escherichia coli; settings: 2×, 4×, 8× MIC; 2, 6, 24 hr
[11] = MIC 0.5 μg/mL, 30 Prevotella spp. isolates
[12] = MIC 4 μg/mL, 30 Prevotella spp. isolates
[13] = MIC 8 μg/mL, 30 Prevotella spp. isolates
[14] = MIC 16 μg/mL, 30 Prevotella spp. isolates
[15] = MIC 32 μg/mL, 30 Prevotella spp. isolates
[16] = MIC 64 μg/mL, 30 Prevotella spp. isolates
[17] = ceftriaxone selection 8X MIC, 0.5 μg/mL
[18] = mutant prevention concentration
[19] = E. coli ATCC 25922, ceftriaxone selection 8X MIC, 0.5 μg/mL
[20] = E. coli MMX 1312, ceftriaxone selection 4X MIC, 16 μg/mL
[21] = E. coli MMX 1312, ceftriaxone selection 8X MIC, 32 μg/mL
[22] = ceftriaxone selection 4X MIC, 16 μg/mL
[23] = ceftriaxone selection 8X MIC, 32 μg/mL
[24] = 29 Bacteroides non-fragilis clinical isolates

CO/N=C(\C(=O)N[C@@H]1C(=O)N2C(C(=O)O)=C(CSc3nc(=O)c(=O)[nH]n3C)CS[C@H]12)c1csc(N)n1 [ceftriaxone]
Cumulative percentage of isolates inhibited at MIC [1]: 100.0% | Number of test isolates at MIC [1]: 3 | Cumulative percentage of isolates inhibited at MIC [1, 11]: 20.0% | Number of test isolates at MIC [1, 11]: 1 | Cumulative percentage of isolates inhibited at MIC [1, 12]: 33.3% | Number of test isolates at MIC [1, 12]: 4 | Cumulative percentage of isolates inhibited at MIC [1, 13]: 36.7% | Number of test isolates at MIC [1, 13]: 1 | Cumulative percentage of isolates inhibited at MIC [1, 14]: 46.7% | Number of test isolates at MIC [1, 14]: 3 | Cumulative percentage of isolates inhibited at MIC [1, 15]: 66.7% | Number of test isolates at MIC [1, 15]: 6 | Cumulative percentage of isolates inhibited at MIC [1, 16]: 90.0% | Number of test isolates at MIC [1, 16]: 7 | MPC [2]: 0.12 µg/mL | Average Count [3, 17]: 0 CFU | Count 1 [3, 17]: 0 CFU | Count 2 [3, 17]: 0 CFU | Spontaneous Mutation Frequency [3, 17]: ≤9.52 × 10^−10 | MPC [3, 18]: 0.25 µg/mL | Average Count [4, 19]: 0 CFU | Count 1 [4, 19]: 0 CFU | Count 2 [4, 19]: 0 CFU | Spontaneous Mutation Frequency [4, 19]: ≤7.41 × 10^−9 | MPC ([4]; E. coli ATCC 25922): 0.25 µg/mL | MPC ([4]; E. coli ATCC 35218): 0.12 µg/mL | Average Count [4, 20]: TNTC | Count 1 [4, 20]: TNTC | Count 2 [4, 20]: TNTC | Average Count [4, 21]: TNTC | Count 1 [4, 21]: TNTC | Count 2 [4, 21]: TNTC | Average Count [5, 22]: TNTC | Count 1 [5, 22]: TNTC | Count 2 [5, 22]: TNTC | Spontaneous Mutation Frequency ([5]; ceftriaxone selection 4X MIC, 16 μg/mL, based on estimated count of >500 average CFU): >8.69 × 10^−8 | Average Count [5, 23]: 0 CFU | Count 1 [5, 23]: 0 CFU | Count 2 [5, 23]: 0 CFU | Spontaneous Mutation Frequency [5, 23]: ≤1.74 × 10^−10 | MPC [5, 18]: 32 µg/mL | Average Count [6, 17]: 0 CFU | Count 1 [6, 17]: 0 CFU | Count 2 [6, 17]: 0 CFU | Spontaneous Mutation Frequency [6, 17]: ≤1.73 × 10^−10 | MPC [6, 18]: 0.12 µg/mL | activity against SIBO organisms [7]: active against SIBO organisms | isolates resistant [8]: 72% | isolates with intermediate resistance [8]: 3% | % I [8, 24]: 3% | % R [8, 24]: 72% | % S [8, 24]: 24% | MIC50 [8, 24]: >128 µg/mL | MIC90 [8, 24]: >128 µg/mL | MIC range [8, 24]: 1 to 128 µg/mL | MIC50 ([8]; Bacteroides, read-out: MIC50): > 128 µg/mL | MIC90 ([8]; Bacteroides, read-out: MIC90): > 128 µg/mL | Mode ([8]; modal MIC, 29 Bacteroides non-fragilis clinical isolates): >128 µg/mL | MIC ([9]; B. fragilis ATCC 25285, selected on rifaximin 4X MIC, Colony A): 16 µg/mL | MIC ([9]; B. fragilis ATCC 25285, selected on rifaximin 4X MIC, Colony B): 32 µg/mL | MIC ([9]; B. fragilis ATCC 25285, selected on rifaximin 8X MIC, Colony A): 32 µg/mL | MIC ([9]; B. fragilis ATCC 25285, selected on rifaximin 8X MIC, Colony B): 32 µg/mL | MIC ([9]; B. fragilis ATCC 25285 Parent): 32 µg/mL | MIC ([9]; B. ovatus MMX 3503, selected on rifaximin 4X MIC, Colony A): 128 µg/mL | MIC ([9]; B. ovatus MMX 3503, selected on rifaximin 4X MIC, Colony B): 64 µg/mL | MIC ([9]; B. ovatus MMX 3503, selected on rifaximin 8X MIC, Colony A): > 128 µg/mL | MIC ([9]; B. ovatus MMX 3503, selected on rifaximin 8X MIC, Colony B): 64 µg/mL | MIC ([9]; B. ovatus MMX 3503 Parent): 128 µg/mL | broth microdilution MIC higher than parent ([9]; B. vulgatus ATCC 8482, one of two isolates selected at 4× the MIC): 4 fold | MIC ([9]; B. vulgatus ATCC 8482, selected on ceftriaxone 4X MIC, Colony A): 2 µg/mL | MIC ([9]; B. vulgatus ATCC 8482, selected on ceftriaxone 4X MIC, Colony B): 4 µg/mL | MIC ([9]; B. vulgatus ATCC 8482, selected on rifaximin 4X MIC, Colony A): 2 µg/mL | MIC ([9]; B. vulgatus ATCC 8482, selected on rifaximin 4X MIC, Colony B): 1 µg/mL | MIC ([9]; B. vulgatus ATCC 8482, selected on rifaximin 8X MIC, Colony A): 2 µg/mL | MIC ([9]; B. vulgatus ATCC 8482, selected on rifaximin 8X MIC, Colony B): 2 µg/mL | MIC ([9]; B. vulgatus ATCC 8482 Parent (Table 50)): 1 µg/mL | MIC ([9]; B. vulgatus ATCC 8482 Parent (Table 54)): 1 µg/mL | time-kill kinetics outcome (bactericidal = ≥3 log reduction in CFU per mL) [10]: killing at 6 and 24 hr that approached 3-logs
